# Reference: patent US11980620B2, “Compounds and methods for treatment of Diamond Blackfan anemia” (THE CHILDREN'S MEDICAL CENTER CORPORATION, priority 2017, dated 2024)
# Legend:
# [1] = test system: CD34-5F progenitors with ATG5 knockdown; experiment: Erythroid differentiation of CD34-5F cells transduced with shRNAs for ATG5; format: cell-based, human; details: SMER28 10 μM; p=0.005
# Description: (FIG. 13A) Induction of autophagy by SMER28 (40 μM) monitored by protein levels of p62, LC3-I, and LC3-II after 24 hours. Cells were also treated with 5-FU (100 nM) to induce autophagy, or inhibitor of transcription actinomycin D (ActD; 100 nM). (FIG. 13B) Induction of autophagy by SMER28 (40 μM) monitored by protein levels of p62, LC3-I, and LC3-II after 24 hours treatment with or without lysosomal blockade with bafilomycin A (200 nM for 4 hours). Untreated samples are shown at higher exposure, to capture dynamic changes in the LC3-II levels. Rapamycin (200 nM) is a positive control. LC3-II levels relative to GAPDH are quantitated on the right. (FIG. 13C) Erythroid differentiation of CD34-5F cells transduced with shRNAs for luciferase (LUC) or ATG5±SMER28. Representative flow plots and quantitation showing the number of erythroid cells induced by SMER28 (10 μM) normalized to DMSO. 2 control luciferase shRNAs and 2 ATG5 shRNAs are included (knockdown efficiency in hematopoietic cells of 58% and 50%, respectively), each with 2 independent lines; p=0.005, 3 independent experiments. (FIG. 13D) Atg5 deficiency causes anemia in zebrafish. […] Representative images (left), and quantitation (right) with embryos grouped by high, medium, and low levels of benzidine staining. […]
# [2] = test system: DBA CD34-5F cells; experiment: NSG mice transplanted with DBA CD34-5F progenitors, erythroid proportion of human graft; format: in vivo
# Description: (FIG. 10A) SMER28 rescues RBC output in rps29^+/− zebrafish embryos. The level of hemoglobin in the yolk sac was visualized 40hpf with benzidine staining. Images are representative of the proportion of embryos indicated (of total counted). (FIG. 10B) Quantitation of SMER28 rescue for a range of 0.1-1 μM, with embryos grouped by high, medium, and low levels of hemoglobin staining. (FIG. 10C) Peripheral blood (PB) RBC counts and hematocrit in mice with irradiation-induced anemia. Mice were treated with the PEG400-based vehicle containing DMSO (VEH) (n=11), 1 mg/kg Dex (sodium-phosphate) (n=13), or 10 mg/kg SMER28 (n=9) for 3 weeks, bled, and assessed. Data are combined from 3 independent experiments. (FIG. 10D) Erythroid cells as proportion of the human graft in mice transplanted with DBA CD34-5F progenitors, and treated as in (FIG. 1c). (FIG. 10E) Levels of human engraftment in NSG mouse bone marrow (BM) transplanted with CB CD34^+ cells. Mice were treated with DMSO plus vehicle (VEH) (n=10), 1 mg/kg Dex (sodium-phosphate) (n=6), or 2 mg/kg SMER28 (n=11) for 4 weeks. (FIG. 10F) The proportion of erythroid, myeloid, and lymphoid (B cells) lineages within the human graft in vehicle- and SMER28-treated mice transplanted with CB CD34^+ cells. Only the effect on the erythroid lineage was significant. Data in FIGS. 10E-10G are pooled from 2 independent experiments. […]
# [3] = test system: K562 erythroleukemia cells transduced with shRPS19; experiment: Autophagy induction (p62, LC3-I, LC3-II protein levels) in K562 cells transduced with shRPS19; format: cell-based, human
# Description: (FIG. 13A) Induction of autophagy by SMER28 (40 μM) monitored by protein levels of p62, LC3-I, and LC3-II after 24 hours. Cells were also treated with 5-FU (100 nM) to induce autophagy, or inhibitor of transcription actinomycin D (ActD; 100 nM). (FIG. 13B) Induction of autophagy by SMER28 (40 μM) monitored by protein levels of p62, LC3-I, and LC3-II after 24 hours treatment with or without lysosomal blockade with bafilomycin A (200 nM for 4 hours). Untreated samples are shown at higher exposure, to capture dynamic changes in the LC3-II levels. Rapamycin (200 nM) is a positive control. LC3-II levels relative to GAPDH are quantitated on the right. (FIG. 13C) Erythroid differentiation of CD34-5F cells transduced with shRNAs for luciferase (LUC) or ATG5±SMER28. Representative flow plots and quantitation showing the number of erythroid cells induced by SMER28 (10 μM) normalized to DMSO. 2 control luciferase shRNAs and 2 ATG5 shRNAs are included (knockdown efficiency in hematopoietic cells of 58% and 50%, respectively), each with 2 independent lines; p=0.005, 3 independent experiments. (FIG. 13D) Atg5 deficiency causes anemia in zebrafish. Wild-type zebrafish embryos were treated with 1.6 ng atg5 or missense morpholino, and hemoglobin staining was visualized with benzidine staining at 40 hpf with SMER28 (1 μM). Representative images (left), and quantitation (right) with embryos grouped by high, medium, and low levels of benzidine staining.
# SMER28 was identified as an mTOR-independent inducer of autophagy, by synergizing with rapamycin to promote clearance of protein aggregates in models of neurodegenerative disease (Sarkar et al., 2007; Tian et al., 2011). Autophagy is a pro-survival pathway induced by a variety of stresses, such as nutrient limitation or protein aggregation. Autophagy is required for clearance of mitochondria during terminal erythroid maturation (Mortensen and Simon, 2010), but has not been linked with earlier stages of erythropoiesis. To determine if SMER28 modulates autophagy in erythroid cells, we interrogated the levels of p62 and LC3 in K562 erythroleukemia cells transduced with shRPS19. SMER28 reduced p62 and increased the levels of […] LC3-II isoform associated with autophagosomes (FIG. 13A). […] To measure autophagic flux, we monitored LC3-II levels after blocking lysosomal fusion with bafilomycin A. SMER28 increased LC3-II levels following lysosomal blockade, similarly to the mTOR inhibitor rapamycin (FIG. 13B).
# Drug treatments. SMER28 was purchased from Tocris and diluted in 10 mM aliquots in DMSO. The final concentration for CD34-5F and CB CD34^+erythroid treatments was 0.2-10 μM as indicated in the text. The final concentration for K562 cell treatments was 20-40 μM. […]
smiles,measurement,setting,value
"C=CCNc1ncnc2ccc(Br)cc12 [SMER28, 6-Bromo-N-2-propenyl-4-quinazolinam]",effect of SMER28 on erythroid differentiation after knockdown of ATG5,[1],significantly reduced
same,output of GlyA+ RBCs from DBA CD34-5F cells,[2],increased
same,LC3-II levels following lysosomal blockade (autophagic flux),"[3]; SMER28 40 μM 24 hours, bafilomycin A 200 nM for 4 hours",increased
same,levels of LC3-II isoform associated with autophagosomes,"[3]; SMER28 40 μM, 24 hours",increased
same,p62 protein level,"[3]; SMER28 40 μM, 24 hours",reduced
